This is an account of results in ChEMBL document CHEMBL1126791, “Synthesis and antibacterial activity of a new series of tetracyclic pyridone carboxylic acids” (J Med Chem, 1993).

Experiment [1] has as its system Pseudomonas aeruginosa. Briefly: In vitro minimum inhibitory concentration against Pseudomonas aeruginosa E-2. The class given is functional.
Experiment [2] deals with Staphylococcus aureus. Briefly: In vitro minimum inhibitory concentration against Staphylococcus aureus FDA 209P JC-1. The class given is functional.
The test system of experiment [3] is Staphylococcus epidermidis. Briefly: In vitro minimum inhibitory concentration against Staphylococcus epidermidis IAM 1296. The class given is functional.
Experiment [4] concerns Escherichia coli. Briefly: In vitro minimum inhibitory concentration against Escherichia coli NIHJ JC-2. In kind it is functional.
For experiment [5], the system named is Escherichia coli. Put plainly: In vitro minimum inhibitory concentration against Escherichia coli KC-14. The class given is functional.
The test system of experiment [6] is Klebsiella pneumoniae. Put plainly: In vitro minimum inhibitory concentration against Klebsiella pneumoniae B54. In kind it is functional.
Experiment [7] relates to Escherichia coli. Put plainly: In vitro minimum inhibitory concentration against Escherichia coli KL-16. In kind it is functional.
The subject of experiment [8] is Escherichia coli. Put plainly: Inhibitory effect on DNA gyrase supercoiling activity against Escherichia coli KL-16. The class given is functional.
For experiment [9], the system named is Salmonella typhimurium. Put plainly: In vitro minimum inhibitory concentration against Salmonella Typhimurium IID 971. The following applies: Salmonella enterica. The class given is functional, Salmonella enterica subsp. enterica serovar Typhimurium.
Experiment [10] deals with Enterococcus faecalis. Briefly: In vitro minimum inhibitory concentration against E. Faecalis IID682. The class given is functional.
Experiment [11] concerns Pseudomonas aeruginosa. Briefly: In vitro minimum inhibitory concentration against Pseudomonas aeruginosa IFO 3445. The class given is functional.
Experiment [12] has as its system Staphylococcus aureus. Put plainly: In vitro minimum inhibitory concentration against Staphylococcus aureus IID 803. The class given is functional.
For experiment [13], the system named is Escherichia coli. Briefly: Oral antibacterial activity against Escherichia coli KC-14 in mice. In kind it is functional.
In experiment [14] the test system is Staphylococcus aureus. Briefly: Oral antibacterial activity against Staphylococcus aureus IID 803 in mice (95% confidence limits). In kind it is functional.
The subject of experiment [15] is Pseudomonas aeruginosa. Put plainly: Oral antibacterial activity against Pseudomonas aeruginosa E-2 in mice. In kind it is functional.

In brackets after ≈: the same amount, converted by molar mass.

Regarding `CCN1Cc2csc3c(C(=O)O)c(=O)c4cc(F)c(N5CCN(C)CC5)c1c4n23`, the MIC in [1] came out at 3.13 µg/mL (≈ 7.52 µM); in [2] it was 0.2 µg/mL (≈ 0.48 µM); in experiment [3], 0.2 µg/mL (≈ 0.48 µM); in [4], 0.39 µg/mL (≈ 0.936 µM); in experiment [5], 0.2 µg/mL (≈ 0.48 µM); in [6], 0.2 µg/mL (≈ 0.48 µM). Moreover, the MIC in [7] turned out to be 0.2 µg/mL (≈ 0.48 µM); in experiment [9], 0.2 µg/mL (≈ 0.48 µM); in experiment [10], 0.78 µg/mL (≈ 1.87 µM); in [11] it was 3.13 µg/mL (≈ 7.52 µM); in experiment [12], 0.2 µg/mL (≈ 0.48 µM). The IC50 in [8] came out at 0.25 µg/mL (≈ 0.6 µM).

In the case of `CN1CCN(c2c(F)cc3c(=O)c(C(=O)O)c4scc5n4c3c2N(C2CC2)C5)CC1`, the MIC in experiment [1] stood at 3.13 µg/mL (≈ 7.3 µM); in [2], 0.2 µg/mL (≈ 0.467 µM); in [3], 0.39 µg/mL (≈ 0.91 µM); in experiment [4], 0.2 µg/mL (≈ 0.467 µM); in experiment [5], 0.1 µg/mL (≈ 0.233 µM); in experiment [6], 0.2 µg/mL (≈ 0.467 µM). Further, the MIC in experiment [7] came to 0.2 µg/mL (≈ 0.467 µM); in experiment [9], 0.39 µg/mL (≈ 0.91 µM); in [10], 0.78 µg/mL (≈ 1.82 µM); in experiment [11] it was 1.56 µg/mL (≈ 3.64 µM); in experiment [12] it was 0.2 µg/mL (≈ 0.467 µM). This molecule displayed an IC50 in experiment [8] of 0.34 µg/mL (≈ 0.793 µM).

Take `CN1CCN(c2c(F)cc3c(=O)c(C(=O)O)c4scc5n4c3c2OC5)CC1`: the MIC came out at 0.78 µg/mL (≈ 2 µM) in experiment [1]; 0.1 µg/mL (≈ 0.257 µM) in experiment [2]; 0.2 µg/mL (≈ 0.514 µM) in experiment [3]; 0.1 µg/mL (≈ 0.257 µM) in experiment [4]; 0.1 µg/mL (≈ 0.257 µM) in [5]; 0.1 µg/mL (≈ 0.257 µM) in experiment [6]. The MIC in experiment [7] amounted to 0.05 µg/mL (≈ 0.128 µM); in experiment [9] it was 0.05 µg/mL (≈ 0.128 µM); in experiment [10], 0.39 µg/mL (≈ 1 µM); in experiment [11], 0.78 µg/mL (≈ 2 µM); in [12] it was 0.1 µg/mL (≈ 0.257 µM). The ED50 worked out at 1.4 mg/kg in [13], 12.3 mg/kg in experiment [14] and 11.7 mg/kg in experiment [15]. In addition, 0.14 µg/mL (≈ 0.36 µM) corresponded to half-maximal inhibition in experiment [8] (IC50).

For the molecule `CN1CCN(c2c(F)cc3c(=O)c(C(=O)O)c4scc5n4c3c2SC5)CC1`, the MIC in experiment [1] came out at 3.13 µg/mL (≈ 7.72 µM); in experiment [2], 0.2 µg/mL (≈ 0.493 µM); in experiment [3] it was 0.39 µg/mL (≈ 0.962 µM); in experiment [4] it was 0.2 µg/mL (≈ 0.493 µM); in experiment [5] it was 0.2 µg/mL (≈ 0.493 µM); in [6], 0.2 µg/mL (≈ 0.493 µM). The MIC in experiment [7] was determined as 0.2 µg/mL (≈ 0.493 µM); in experiment [9], 0.1 µg/mL (≈ 0.247 µM); in [10] it was 0.78 µg/mL (≈ 1.92 µM); in experiment [11], 3.13 µg/mL (≈ 7.72 µM); in experiment [12] it was 0.2 µg/mL (≈ 0.493 µM). The IC50 in [8] was 0.24 µg/mL (≈ 0.592 µM).

Take `CN1CCN(c2c(F)cc3c(=O)c(C(=O)O)c4scc5n4c3c2N(Cc2ccccc2)C5)CC1.Cl`: the MIC in [1] was 100 µg/mL; in experiment [2], 6.25 µg/mL; in [3], 12.5 µg/mL; in experiment [4], 25 µg/mL; in experiment [5] it was 12.5 µg/mL; in experiment [6] it was 50 µg/mL. For the same molecule, the MIC in experiment [7] was 25 µg/mL; in experiment [9] it was 50 µg/mL; in experiment [10] it was 25 µg/mL; in [11], 100 µg/mL; in experiment [12] it was 3.13 µg/mL. For the same molecule, the IC50 in [8] was > 10 µg/mL.

As to `CN1CCN(c2c(F)cc3c(=O)c(C(=O)O)c4scc5n4c3c2C(=O)C5)CC1.Cl`, the MIC stood at 100 µg/mL in [1]; 6.25 µg/mL in experiment [2]; 12.5 µg/mL in [3]; 12.5 µg/mL in experiment [4]; 12.5 µg/mL in experiment [5]; 25 µg/mL in [6]. In addition, the MIC was 12.5 µg/mL in [7]; 12.5 µg/mL in [9]; 50 µg/mL in experiment [10]; 100 µg/mL in experiment [11]; 6.25 µg/mL in experiment [12]. In addition, the IC50 in [8] was > 10 µg/mL.

Take `C=CCN1Cc2csc3c(C(=O)O)c(=O)c4cc(F)c(N5CCN(C)CC5)c1c4n23.Cl`: the MIC in experiment [1] was determined as 6.25 µg/mL; in experiment [2], 0.39 µg/mL; in [3], 0.78 µg/mL; in [4], 0.78 µg/mL; in experiment [5], 0.39 µg/mL; in experiment [6], 12.5 µg/mL. The minimal inhibitory concentration (MIC) came to 0.78 µg/mL in [7]; 0.78 µg/mL in experiment [9]; 3.13 µg/mL in experiment [10]; 1.56 µg/mL in experiment [11]; 0.39 µg/mL in experiment [12]. The IC50 in experiment [8] was 0.45 µg/mL.

Turning to `CN1CCN(c2c(F)cc3c(=O)c(C(=O)O)c4scc5n4c3c2N(c2ccccc2)C5)CC1.Cl`, the MIC in experiment [1] worked out at 100 µg/mL; in [2], 1.56 µg/mL; in experiment [3], 1.56 µg/mL; in [4], 3.13 µg/mL; in experiment [5], 3.13 µg/mL; in experiment [6], 3.13 µg/mL. The MIC stood at 3.13 µg/mL in experiment [7]; 3.13 µg/mL in [9]; 25 µg/mL in experiment [10]; 100 µg/mL in experiment [11]; 0.78 µg/mL in [12]. In [8], this molecule displayed an IC50 of 1.76 µg/mL.

As for `CN1CCN(c2c(F)cc3c(=O)c(C(=O)O)c4scc5n4c3c2N(C)C5)CC1`, the MIC is 0.78 µg/mL (≈ 1.94 µM) in [1]; 0.05 µg/mL (≈ 0.124 µM) in [2]; 0.05 µg/mL (≈ 0.124 µM) in [3]; 0.05 µg/mL (≈ 0.124 µM) in experiment [4]; 0.05 µg/mL (≈ 0.124 µM) in experiment [5]; 0.05 µg/mL (≈ 0.124 µM) in [6]. The MIC in experiment [7] turned out to be 0.05 µg/mL (≈ 0.124 µM); in [9], 0.05 µg/mL (≈ 0.124 µM); in experiment [10] it was 0.1 µg/mL (≈ 0.248 µM); in [11], 0.39 µg/mL (≈ 0.969 µM); in experiment [12], 0.05 µg/mL (≈ 0.124 µM). The values for the ED50 in experiment [13], in [14] and in experiment [15] were 0.9 mg/kg, 2.8 mg/kg and 10.2 mg/kg, respectively. The molecule further gave an IC50 in experiment [8] of 0.16 µg/mL (≈ 0.398 µM).

Consider `CC1COc2c(N3CCN(C)CC3)c(F)cc3c(=O)c(C(=O)O)cn1c23` (centres undefined) [OFLOXACIN], for which the MIC in [1] came out at 1.56 µg/mL (≈ 4.32 µM); in [2], 0.39 µg/mL (≈ 1.08 µM); in [3] it was 0.78 µg/mL (≈ 2.16 µM); in experiment [4], 0.1 µg/mL (≈ 0.277 µM); in [5], 0.1 µg/mL (≈ 0.277 µM); in experiment [6] it was 0.1 µg/mL (≈ 0.277 µM). For the same molecule, the MIC in experiment [9] is 0.05 µg/mL (≈ 0.138 µM); in experiment [10], 1.56 µg/mL (≈ 4.32 µM); in experiment [11], 1.56 µg/mL (≈ 4.32 µM); in [12], 0.39 µg/mL (≈ 1.08 µM).

Broadly, the MIC is the least concentration at which growth counts as inhibited. Lower therefore signals a more susceptible organism. Broadly, the IC50 is the concentration needed to halve the response being measured. A lower IC50 goes with inhibition by little substance. For orientation: ED50 means the midpoint of the dose-response relation.
